Columns and labels:
Assay type in all cases: biochemical
482 bp of human β-globin = test: PCR amplification of 482 bp of human β-globin with dUTP in place of dTTP; parameters: key to Results of PCR in the presence of dUTP 481 bp: A: Amplified; B: Amplified (faint band); C: Not amplified; conditions: dTTP replaced by dUTP, 35 cycles
Experimental: 482 bp of human β-globin was amplified to compare the amplification difference between the case of using dTTP and the case of using dUTP in PCR, and the sensitivity to dUTP was examined. For amplification, each enzyme was used after being mixed with 1 μg of a KOD antibody per U of the enzyme. For PCR, components included in KOD-Plus-Ver. 2 (produced by Toyobo Co. Ltd.) were used. General dNTPs (dATP, dTTP, dCTP, dGTP) in an amount of 0.2 mM were added to 50 μl of individual reaction solutions, and dNTPs (dATP, dUTP, dCTP, dGTP) in an amount of 0.2 mM in which dTTP was replaced by dUTP were added to 50 μl of individual reaction solutions. The reaction solutions contained 1× PCR buffer, 1.5 mM MgSO4, primers represented by SEQ ID NOs: 27 and 28 in an amount of 15 pmol for amplifying […], 10 ng of human genomic DNA (produced by Roche), and 1 U of each respective enzyme mixed with the antibody. PCR was performed using a GeneAmp PCR system 9700 (produced by Applied Biosystems) on the following schedule: preliminary reaction at 94° C. for 2 minutes, followed by 35 cycles, each cycle consisting of 98° C. for 10 seconds and 68° C. for 1 minute. After the completion of each individual reaction, each of the resulting reaction solutions was analyzed using to a DNA-1000 kit for MultiNA (produced by Shimadzu Corporation) to confirm amplified DNA fragments. FIGS. 5 and 6 show the results.

[1] = test system: 1.3 kbp, 2.8 kbp, and 3.6 kbp of human β-globin; test: Amplification of long-chain DNA in PCR using dUTP; parameters: key to Results of PCR in the presence of dUTP 1.3 kbp / Results of PCR in the presence of dUTP 2.8 kbp / Results of PCR in the presence of dUTP 3.6 kbp: A: Amplified; B: Amplified (faint band); C: Not amplified; conditions: dTTP replaced by dUTP, 35 cycles
Experimental: Amplification of 1.3 kbp, 2.8 kbp, and 3.6 kbp of human β-globin in PCR using dUTP was compared. For amplification, each enzyme was used after being mixed with 1 μg of a KOD antibody per U of the enzyme. For PCR, components included in KOD-Plus-Ver. 2 (produced by Toyobo Co. Ltd.) were used. 50 μl of individual reaction solutions containing 1× PCR buffer, 1.5 mM MgSO4, dNTPs (dATP, dUTP, dCTP, dGTP) in an amount of 2 mM in which dTTP was replaced by dUTP, primers in an amount of 15 pmol (SEQ ID NOs: 25 and 26 for amplification of 1.3 kbp; SEQ ID NOs: 26 and 29 for amplification of 2.8 kbp; SEQ ID NOs: 30 and 31 for amplification of 3.6 kbp), 10 ng of human genomic DNA (produced by Roche), and 1 U of each respective enzyme mixed with the antibody were used. PCR was performed using a GeneAmp PCR system 9700 (Applied Biosystems) on the following schedule: preliminary reaction at 94° C. for 2 minutes, followed by 35 cycles, each cycle consisting of 98° C. for 10 seconds, 65° C. for 30 seconds, and 68° C. for about 1 minute per kbp (1 minute and 30 seconds for amplification of 1.3 kbp; 3 minutes for amplification of 2.8 kbp; 4 minutes for amplification of 3.6 kbp). As a control, amplification was also performed using Taq DNA polymerase. Taq DNA polymerase produced by Toyobo Co. Ltd. mixed with Anti-Taq High (produced by Toyobo Co. Ltd.) was used. 50 μl of a reaction solution containing 1× buffer included in Blend Taq, dNTPs (dATP, dUTP, dCTP, dGTP) in an amount of 2 mM in which dTTP was replaced by dUTP, primers in an amount of 10 pmol the same as the above), 10 ng of human genomic DNA (produced by Roche), and 2.5 U of the enzyme mixed with the antibody was used. PCR was performed using a GeneAmp PCR system 9700 (produced by Applied Biosystems) on the following schedule: preliminary reaction at 94° C. for 2 minutes, followed by 35 cycles, each cycle consisting of 94° C. for 30 seconds, 65° C. for 30 seconds, and 68° C. for about 1 minute per kbp (1 minute and 30 seconds for amplification of 1.3 kbp; 3 minutes for amplification of 2.8 kbp; 4 minutes for amplification of 3.6 kbp). After the completion of each individual reaction, 5 μl of each of the resulting reaction solutions was subjected to agarose electrophoresis, followed by ethidium bromide staining, and the amount of amplified DNA fragments was confirmed under ultraviolet irradiation. FIGS. 9 and 10 show the results.

[2] = test system: human genomic DNA (about 1.3 kb) with dUTP added; test: Evaluation of uracil (dUTP) sensitivity by PCR with dUTP added to the reaction; conditions: closer to 0 = stronger sensitivity to dUTP, closer to 10 = lower sensitivity; summary of Examples 1 to 3
Experimental: The uracil sensitivity of the modified DNA polymerase of the present invention can be evaluated by PCR. For example, a dUTP solution is added at a final concentration of 0.5 μM to 200 μM to a common PCR reaction solution containing DNA as a template, a buffer, magnesium, dNTPs, primers, and a DNA polymerase to be evaluated, and thermal cycling is performed. After the reaction, the presence or absence of PCR products is confirmed by ethidium bromide-stained agarose electrophoresis, and the uracil sensitivity can be evaluated by the concentration of accepted dUTP. With a DNA polymerase having high uracil sensitivity, the extension reaction is inhibited by the addition of a small amount of dUTP, and PCR products cannot be confirmed. With a DNA polymerase having low uracil sensitivity, gene amplification by PCR can be confirmed without problem, even if a high concentration of dUTP is added. The modified DNA polymerase with low uracil sensitivity in the present invention refers to a DNA polymerase such that when optimum thermal cycling is performed using any primers and DNA as a template in a reaction buffer optimum for the enzyme, even if a high concentration of dUTP is added, an extension reaction is not inhibited and PCR products can be confirmed, compared to wild-type DNA polymerase, which has no mutation.
More specifically, 10× PCR buffer included in KOD-Plus-Ver. 2 (produced by Toyobo Co. Ltd.) or 10× PCR buffer included in Pfu DNA Polymerase (produced by Agilent) is used; dUTP (produced by Roche) is added to 50 μl of individual reaction solutions containing 1× PCR buffer, 1.5 mM MgSO4, dNTPs (dATP, dTTP, dCTP, and dGTP) in an amount of 0.2 mM, primers represented by SEQ ID NOs: 25 and 26 in an amount of 15 pmol for amplifying about 1.3 kb, 10 ng of human genomic DNA (produced by Roche), and 1 U of each respective enzyme, to final concentrations of 0.5, 5, 50, 100, and 200 μM. PCR is performed using a GeneAmp PCR system 9700 (Applied Biosystems) on the following schedule; preliminary reaction at 94° C. for 30 seconds, followed by 30 cycles, each cycle consisting of 98° C. for 10 seconds, 65° C. for 30 seconds, and 68° C. for 1 minute and 30 seconds. After the completion of each individual reaction, 5 μl of each of the resulting reaction solutions is subjected to agarose electrophoresis, followed by ethidium bromide staining. The uracil sensitivity can be evaluated by confirming amplified DNA fragments of about 1.3 kb under ultraviolet irradiation.
PCR was performed by the following method to evaluate uracil sensitivity. For PCR, components included in KOD-Plus-Ver. 2 (produced by Toyobo Co. Ltd.) were used. dUTP (produced by Roche) was added to 50 μl of individual reaction solutions containing 1× PCR buffer, 1.5 mM MgSO4, dNTPs (dATP, dTTP, dCTP, dGTP) in an amount of 0.2 mM, primers represented by SEQ ID NOs: 25 and 26 in an amount of 15 pmol for amplifying about 1.3 kb, 10 ng of human genomic DNA (produced by Roche), and 1 U of each respective enzyme, to final concentrations of 0.5, 5, 50, 100, and 200 μM. PCR was performed using a GeneAmp PCR system 9700 (produced by Applied Biosystems) on the following schedule: preliminary reaction at 94° C. for 30 seconds, followed by 30 cycles, each cycle consisting of 98° C. for 10 seconds, 65° C. for 30 seconds, and 68° C. for 1 minute and 30 seconds. After the completion of each individual reaction, 5 μl of each of the resulting reaction solutions was subjected to agarose electrophoresis, followed by ethidium bromide staining. Under ultraviolet irradiation, amplified DNA fragments of about 1.3 kb were confirmed. FIGS. 3, 4, 7, and 8 show the results.

Substance | Results of PCR in the presence of dUTP 481 bp (482 bp of human β-globin) | Results of PCR in the presence of dUTP 1.3 kbp [1] | Results of PCR in the presence of dUTP 2.8 kbp [1] | Results of PCR in the presence of dUTP 3.6 kbp [1] | Evaluation of dUTP resisitance on a 11-point scale [2]
KOD Y7A/P36H/V93K: modified KOD DNA polymerase with Y7A, P36H and V93K | C | C | C | C | 0
KOD H147E/Y7A/P36H/V93K: KOD H147E (exo(+)) mutant with Y7A, P36H and V93K | C | C | C | C | 0
KOD Y7A/P36R/V93K: modified KOD DNA polymerase with Y7A, P36R and V93K | C | C | C | C | 0
KOD H147E/Y7A/P36R/V93K: KOD H147E (exo(+)) mutant with Y7A, P36R and V93K | C | C | C | C | 0
